Experimental data reported in PubChem BioAssay (NCI).
Several values for one entry are separate records, joined by “and”; a condition that tells them apart may be missing. Identical values can stand only once.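 Protocol summary: plate cells (96-well), add compound at 5 concentrations, incubate 48 h, interpolate endpoints linearly. Here, GI50 denotes the concentration required for 50% inhibition of growth. TGI is the concentration that stops growth completely.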

Tests used:
Experiment in all cases: NCI-60 cell line screen, 48 h
[1] = system: 786-0 renal
[2] = system: A498 renal
[3] = system: CCRF-CEM leukemia
[4] = system: KM12 colon
[5] = system: MALME-3M melanoma
[6] = system: NCI-H23 lung
[7] = system: OVCAR-8 ovarian
[8] = system: RPMI-8226 leukemia
[9] = system: SF-295 CNS
[10] = system: SNB-19 CNS

Row | Compound | GI50 [1] | TGI [1] | GI50 [2] | TGI [2] | GI50 [3] | TGI [3] | GI50 [4] | TGI [4] | GI50 [5] | TGI [5] | GI50 [6] | TGI [6] | GI50 [7] | TGI [7] | GI50 [8] | TGI [8] | GI50 [9] | TGI [9] | GI50 [10] | TGI [10]
1 | CC(C)(C)[Si](C)(C)OC1[C@@H](O[Si](C)(C)C(C)(C)C)[C@@H](CNC(=O)NC(=O)NC(=O)CI)O[C@H]1n1cnc2c(NC(=O)Nc3ccccc3)ncnc21 (stereo partly drawn) | 0.357 µM | 1.08 µM | 3.61 µM | 11.4 µM | 0.0301 µM | 0.102 µM | 0.68 µM | 3.78 µM | 0.143 µM | 0.565 µM | 0.187 µM | 1.09 µM | 0.275 µM | 0.925 µM | 0.285 µM | 1.76 µM | 0.849 µM | 2.36 µM | 12.5 µM | 38.2 µM
2 | NC(=O)c1csc(C2O[C@@H](COP(=O)(O)OP(=O)(O)OC[C@H]3OC(n4cnc5c(N)ncnc54)[C@H](O)[C@@H]3O)[C@H](O)[C@@H]2O)n1 (stereo partly drawn) |  | > 100 µM |  | > 100 µM |  | > 100 µM |  | > 100 µM |  | > 100 µM |  | > 100 µM |  | > 100 µM |  | > 100 µM |  | > 100 µM |  | > 100 µM
3 | COc1cc2c3c(n(CCCO)c(=O)c2cc1OC)-c1cc2c(cc1C3=O)OCO2 | 2.46 µM | 10.1 µM | 42.8 µM | > 73 µM | 3.54 µM | 14.4 µM | 27.7 µM | > 100 µM | 21.6 µM | > 100 µM | 6.75 µM | 28.3 µM | 13.7 µM | > 100 µM | 11.6 µM | > 78 µM | 1.17 µM | > 48.3 µM | 14.5 µM | > 100 µM
4 | Cc1c2cc[n+](C)cc2c(C)c2c1[nH]c1ccc(OC(C)C)cc12 | 0.223 µM and 1.41 µM | 9.1 µM and 32.5 µM |  | > 46.8 µM | 2.59 µM and 15.9 µM | 23.9 µM and > 64.7 µM |  | 13.3 µM and 11.4 µM |  | 3.89 µM and 5.25 µM |  | 5.08 µM and 7.09 µM | 0.649 µM and 1.61 µM | 26 µM and 18.9 µM |  | 36.9 µM and > 60.5 µM | 0.231 µM and 1.7 µM |  | 0.776 µM and 1.91 µM | 5.6 µM and 14.3 µM
5 | C=C(CN1CCc2ccccc2C1)c1ccc(/C=C/C(=O)Nc2ccccc2N)cc1 | 3.81 µM | 24.4 µM | 16.4 µM | 36.8 µM | 1.04 µM | > 100 µM | 0.965 µM | > 100 µM | 0.309 µM | 8.04 µM | 9.55 µM | > 100 µM | 5.86 µM | > 100 µM | 2.92 µM | 13.4 µM | 3.09 µM | 40.6 µM | 26.6 µM | > 100 µM
6 | CC1/C=C/C=C/CC/C=C/C=C/C=C/C=C/C(OC2OC(C)C(O)C(N)C2O)CC2OC(CC(O)C(O)CCC(O)CC(O)CC(O)CC(=O)OC(C)C(C)C1O)CC(O)C2C(=O)O (stereo not drawn) | 25.8 µg/mL | 31.3 µM and 50.1 µg/mL | 25.8 µg/mL | 33.2 µM and 46.5 µg/mL |  | 59.4 µM | 53 µg/mL | 61.5 µM and 150 µg/mL | 28.1 µg/mL | 33 µM and 51.3 µg/mL | 25.7 µg/mL | 35.6 µM and 50.3 µg/mL | 33.3 µg/mL | 47 µM and 74.6 µg/mL | 150 µg/mL | 45.2 µM and 150 µg/mL | 46.2 µg/mL | 45.7 µM and 108 µg/mL | 94.5 µg/mL | 34 µM and 150 µg/mL
